Test system: tubulin
Assay: Tubulin polymerization activity (HTS-Tubulin Polymerization Assay Kit, OD340)
Type: biochemical
Settings: absorbance at 340 nm over reaction time; FIG. 1; paclitaxel control 3.7 mg/mL aqueous solution
Source text: The anticancer agent of the present invention has the structure of paclitaxel or docetaxel, and thus it was conjectured that the compound manifests its anticancer effects by inducing overproduction of tubulin in the same manner as paclitaxel or docetaxel. However, this compound blocks tubulin polymerization in the same manner as vinblastine. The tubulin polymerization activity assay was, as shown in Test Example 1, determined by measuring the absorbance at 340 nm and measuring tubulin polymerization activity.
Tubulin polymerization activity was measured using the HTS-Tubulin Polymerization Assay Kit (manufactured by Cytoskeleton) with respect to both the reaction solution of the present invention obtained in Example 1 and 3.7 mg/mL aqueous solution of paclitaxel used as a control.
The horizontal axis in the figure denotes reaction time (min) and the vertical axis represents tubulin polymerization activity (OD340).

CC(=O)O[C@H]1C(=O)[C@@]2(C)[C@H]([C@H](OC(=O)c3ccccc3)[C@]3(O)C[C@H](OC(=O)[C@H](O)[C@@H](NC(=O)c4ccccc4)c4ccccc4)C(C)=C1C3(C)C)[C@]1(OC(C)=O)CO[C@@H]1C[C@@H]2O [paclitaxel, Paclitaxel]
tubulin polymerization activity (OD340): tubulin polymerization was stimulated

— patent US20070025995A1, “Taxoid derivative covalently linked to tumor-specific antibody and a method for preparing the same” (priority 2005, published 2007)
